Results as given in ChEMBL document CHEMBL3045028, “Synthesis, AntiBacteriol, and Antifungal Activities of Some New Benzimidazoles” (1992).
Activity calls are given as the source filed them. The rule behind the calls is not given here.

What was measured:
Assay type in all cases: functional
[1] = tested on: Xanthomonas campestris pv. campestris; experiment: In vitro antibacterial activity against Xanthomonas campestris pv. campestris KF2 assessed as inhibition at 0.1 %
Agrobacterium sp. = experiment: In vitro antibacterial activity against Agrobacterium radiobacter pv. tumefaciens assessed as inhibition at 0.1 %
Alternaria alternata = experiment: In vivo antifungal activity against Alternaria tenuis; parameters: concentration or dose not given beside the values
[2] = tested on: Xanthomonas euvesicatoria; experiment: In vitro antibacterial activity against Xanthomonas euvesicatoria P-2092 assessed as inhibition at 0.1 %
Pseudomonas viridiflava = experiment: In vitro antibacterial activity against Pseudomonas viridiflava 8 assessed as inhibition at 0.1 %
[3] = tested on: Pseudomonas savastanoi pv. phaseolicola; experiment: In vitro antibacterial activity against Pseudomonas syringae pv. phaseolicola E81 assessed as inhibition at 0.1 %
[4] = tested on: Xanthomonas phaseoli pv. phaseoli; experiment: In vitro antibacterial activity against Xanthomonas campestris pv. phaseoli assessed as inhibition at 0.1 %
Botrytis cinerea = experiment: In vitro antifungal activity against Botryotinia fuckeliana assessed as inhibition at 0.1 %
[5] = tested on: Pseudomonas savastanoi pv. glycinea; experiment: In vitro antibacterial activity against Pseudomonas syringae pv. glycinea S1 assessed as inhibition at 0.1 %
[6] = tested on: Agrobacterium tumefaciens; experiment: In vivo antibacterial activity against Agrobacterium tumefaciens infected carrots assessed as effective at 0.01%

| Compound | diameter of the inhibition zone (DIZ) [1] [cm] | diameter of the inhibition zone (DIZ) (Agrobacterium sp.) [cm] | Efficacy (Alternaria alternata) [%] | diameter of the inhibition zone (DIZ) [2] [cm] | diameter of the inhibition zone (DIZ) (Pseudomonas viridiflava) [cm] | inhibition [3] | diameter of the inhibition zone (DIZ) [4] [cm] | inhibition (Botrytis cinerea) | diameter of the inhibition zone (DIZ) [5] [cm] | Efficacy [6] [%] | diameter of the inhibition zone (DIZ) (Botrytis cinerea) [cm] | inhibition [1] | inhibition (Pseudomonas viridiflava) | diameter of the inhibition zone (DIZ) [3] [cm] | inhibition [4] | inhibition [2] |
| --- | --- | --- | --- | --- | --- | --- | --- | --- | --- | --- | --- | --- | --- | --- | --- | --- |
| COc1cccc(Cn2c(N)nc3ccccc32)c1 | 3 | 3 | 100 | 3 |  |  |  |  |  |  |  |  |  |  |  |  |
| Nc1nc2ccccc2n1Cc1cccc(Cl)c1 | 3 |  | 50 | 3 | 3 | inactive | 3 | inactive | 2 |  |  |  |  |  |  |  |
| CCCCn1c(N)nc2ccccc21 | 3 | 3 | 50 | 3 |  |  |  |  |  | 30 | 3 |  |  |  |  |  |
| Cc1cccc(Cn2c(N)nc3ccccc32)c1 | 3 | 2 | 100 | 3 |  |  |  |  |  |  |  |  |  |  |  |  |
| O=[N+]([O-])c1ccc(/C=N/c2nc3ccccc3n2Cc2ccccc2Cl)o1 |  |  |  |  |  |  |  |  | 3 | 70 | 1 | inactive | inactive | 1 | inactive | inactive |
| O=[N+]([O-])c1ccc(/C=N/c2nc3ccccc3n2Cc2cccc(Cl)c2)o1 |  |  |  | 3 |  | inactive |  |  | 1 | 100 | 1 | inactive | inactive |  | inactive |  |
| CCCCn1c(N)nc2cc(C)c(C)cc21 | 2 | 3 | 100 | 2 |  |  |  |  |  |  |  |  |  |  |  |  |
| COc1cccc(Cn2c(N)nc3cc(C)c(C)cc32)c1 |  |  | 100 |  |  |  |  |  |  |  |  |  |  |  |  |  |
| Cc1cc2ncn(Cc3ccccc3Cl)c2cc1C | 1 |  | 50 |  |  |  |  |  | 1 |  | 1 |  | inactive | 1 | inactive | inactive |
| Cc1cc2ncn(Cc3cccc(F)c3)c2cc1C | 3 | 3 | 50 | 3 |  |  |  |  |  | 70 |  |  |  |  |  |  |
